Measured values reported in US4602945A, “Acaricidal ester of tricyclohexyl-tin hydroxide” (Rhone-Poulenc Agrochimie, priority 1983, dated 1986).

Legend:
[1] = Solubility in organic solvents; type: physicochemical; conditions: cyclohexanone (546 g), 316 g of 94% pure substance, 50° C., with stirring
Description: A reactor is charged, with cyclohexanone (546 g) and 94% pure tricyclohexyl-tin hydroxide (316 g) at 50° C., with stirring. […] Benzoic acid (95 g) is then added and the temperature is kept at 50° C.

[2] = test system: Plutella xylistella larvae; test: Insecticidal test, leaf discs of turnip plants; type: in vivo; conditions: 100 g/hl; 48 hours; 26° C; cyhexatin in the form of a wettable powder
Description: Discs of leaf from turnip plants are placed in gelose in Petri dishes. In each dish, 10 Plutella xylistella larvae are placed on each disc and the dish is covered with a ventilated lid. The product to be tested is dissolved in a water/acetone 50/50 mixture and the discs are treated by spraying with this solution by using a Potter tower at a dose equivalent to 675 liters/ha. The discs are kept at 26° C. After 48 hours after the treatment, the live and dead larvae are counted and the mortality percentage is calculated.

[3] = background statement; cited from earlier work

Compound	dissolution in cyclohexanone [1]	mortality percentage [2]	solubility in most of the usual solvents in agrochemistry [3]
[OH][Sn]([CH]1CCCCC1)([CH]1CCCCC1)[CH]1CCCCC1 [cyhexatin, Tricyclohexyl-tin hydroxide]	does not dissolve	< 10%	insolubility
tricyclohexyl-tin benzoate		at least 95%	
